Read-outs that look alike come from different tables or passages of the source.
What was measured:
[1] = tested on: Plasmodium falciparum parasites (3D7 strain); experiment: SYBR Green based parasite proliferation assay (antimalarial activity); format: cell-based
[2] = tested on: Plasmodium falciparum Dd2 (chloroquine-resistant parasite); experiment: Efficacy against Plasmodium falciparum Dd2; format: cell-based
[3] = tested on: Plasmodium falciparum HB3 (chloroquine-sensitive parasite); experiment: Efficacy against Plasmodium falciparum HB3; format: cell-based
heme crystallization = experiment: Inhibition of heme crystallization; format: biochemical; conditions: molar equivalents of drug to heme
Cytotoxicity, Vero = format: cell-based; conditions: African green monkey, Vero cells
Cytotoxicity, J774 = format: cell-based; conditions: mouse, J774 cells
Cytotoxicity, HepG2 = format: cell-based; conditions: human, HepG2 cells
[4] = tested on: Plasmodium falciparum parasites (3D7 strain); conditions: from Hawley et al. (Antimicrob Agents Chemother 1998, 42: 682); cited from earlier work
[5] = tested on: Plasmodium falciparum HB3 (chloroquine-sensitive parasite); conditions: from Hawley et al. (Antimicrob Agents Chemother 1998, 42: 682); cited from earlier work
[6] = Plasmodium falciparum, 3D7, Table 5, Example 5 numbering (1-13), read-out: P. falciparum (3D7) IC50
[7] = Plasmodium falciparum, 3D7, Table 1, Example 1 numbering (1-18), read-out: Antimalarial IC50

## CC1=C2Cc3cc(ccc3O)C(=O)O[C@H](C(C)(C)Br)CC[C@](C)(O)[C@H](Br)CC[C@]2(C)[C@@H](Br)CC1 [Compound 1]
[1]; [6]
  IC50: 650 nM
[1]; Plasmodium falciparum, 3D7, chloroquine-sensitive parasite, Table 6, Example 5 numbering, read-out: 3D7 IC50
  IC50: 658 nM
[1]; Table 5, Example 5 numbering (1-13), read-out: P. falciparum (3D7) IC50
  IC50: 660 nM
[2]
  IC50: 497 nM
[3]
  IC50: 565 nM
Heme crystallization
  IC50 for heme crystallization: 2.5 ± 0.13 equivalents
Cytotoxicity, Vero
  IC50: 34.6 µM
Cytotoxicity, J774
  IC50: 19 µM
Cytotoxicity, HepG2
  IC50: 21.3 µM

## C=C1CC[C@H](Br)[C@@]2(C)CC[C@@H]3O[C@@]3(C)CC[C@@H](C(C)(C)O)OC(=O)c3ccc(O)c(c3)C[C@H]12 [Compound 14]
[1]; [7]
  IC50: 18000 nM

## CC1=CC[C@@H]2O[C@@]2(C)CC[C@@H](C(C)(C)O)OC(=O)c2ccc(O)c(c2)CC2=C(C)CCC12 (stereo partly shown) [Compound 18]
[1]; [7]
  IC50: > 100000 nM

## CCN(CC)Cc1cc(Nc2ccnc3cc(Cl)ccc23)ccc1O [AMQ, amodiaquine]
Heme crystallization
  IC50 for heme crystallization: 1.2 ± 0.19 equivalents
[4]
  IC50: 7.8 nM
[5]
  IC50: 8.5 nM

## debromophycolide A [Compound 18 (Example 1)]
[1]; Table 4, Example 3 numbering (1-3), read-out: Antimalarial activity IC50
  IC50: > 100000 nM

## CC1=C2Cc3cc(ccc3O)C(=O)O[C@H](C(C)(C)Br)CC[C@](C)(O)/C=C\C[C@]2(C)C=CC1 [Compound 11]
[1]; [6]
  IC50: 4600 nM
